In data set [1] the test system is rat. The following applies: Prenatal developmental toxicity study, sprague dawley, Oral, Gavage/Intubation, dose end: 15 GD.
The test system of data set [2] is rat. The following applies: Combined chronic toxicity/carcinogenicity; wistar; Oral; Feed; dose end: 104 week; group: systemic; systemic / in life observation / body weight / body weight + systemic / in life observation / body weight / body weight gain.
Data set [3] relates to dog. Conditions: Chronic toxicity, beagle, Oral, Feed, dose end: 52 week, group: systemic.
Data set [4] has as its system rat. The following applies: Subchronic oral toxicity in rodents, wistar, Feed, dose end: 90 day, group: systemic, systemic / in life observation / body weight / body weight + systemic / in life observation / body weight / body weight gain + systemic / in….
Data set [5] deals with rat. Conditions: Multigenerational reproductive toxicity study, wistar, Oral, Feed, dose end: 2 generation.
The test system of data set [6] is rabbit. The following applies: Prenatal developmental toxicity study, new zealand white, Oral, Gavage/Intubation, dose end: 19 GD.
The subject of data set [7] is dog. Conditions: Subchronic oral toxicity in nonrodent, beagle, Feed, dose end: 13 week, group: systemic.
Data set [8] deals with mouse. The following applies: Carcinogenicity; cd1; Oral; [Not Specified]; group: systemic; systemic / in life observation / body weight / body weight gain.
Data set [9] concerns dog. The following applies: Subchronic oral toxicity in nonrodent, beagle, Capsule, dose end: 96 day, group: systemic, systemic / in life observation / body weight / body weight gain + systemic / in life observation / clinical signs / emaciation + systemic / ….
Data set [10] relates to rat. Conditions: Sub-acute dermal toxicity, sprague dawley, Topical, dose end: 21 day, group: systemic.
Data set [11] relates to mouse. The following applies: Carcinogenicity, cd1, Oral, Feed, dose end: 80 week, group: systemic.
In data set [12] the test system is rat. Conditions: Combined chronic toxicity/carcinogenicity, sprague dawley, Oral, Feed, dose end: 104 week, group: systemic.
The test system of data set [13] is rabbit. Conditions: Prenatal developmental toxicity study, new zealand white, Oral, Gavage/Intubation, dose end: 18 GD.
Data set [14] concerns rat. The following applies: Subchronic oral toxicity in rodents, sprague dawley, Feed, dose end: 90 day, group: systemic, systemic / clinical chemistry / albumin / albumin + systemic / in life observation / body weight / body weight gain + systemic / organ ….
The subject of data set [15] is dog. The following applies: Chronic toxicity; beagle; Oral; Feed; dose end: 104 week; group: systemic; systemic / clinical chemistry / alanine aminotransferase (alt/sgpt) / alanine aminotransferase (alt/sgpt) + systemic / clinical chemistry / ….
In data set [16] the test system is rat. The following applies: Prenatal developmental toxicity study, sprague dawley, Oral, Gavage/Intubation, dose end: 19 GD.
In data set [17] the test system is rat. Conditions: Subchronic oral toxicity in rodents, wistar, Feed, dose end: 90 day, group: systemic.
In data set [18] the test system is dog. Conditions: Subchronic oral toxicity in nonrodent, beagle, Feed, dose end: 118 day, group: systemic.
Setting [19] is: group: developmental, developmental / developmental malformation / bone / incomplete ossification + systemic / in life observation / body weight / fetal weight.
Setting [20] is: group: maternal, systemic / in life observation / body weight / body weight gain + systemic / in life observation / food consumption / food consumption.
The mark [21] stands for this setting: systemic / in life observation / food consumption / food consumption.
The mark [22] stands for this setting: group: offspring, developmental / developmental malformation / general / runts + systemic / in life observation / body weight / offspring (pup) weight + ….
[23] abbreviates: group: offspring, developmental / developmental malformation / general / runts + systemic / organ weight / thymus / absolute + systemic / organ weight / ….
Setting [24] is: group: reproductive, reproductive / offspring survival early / birth index / live birth index.
Where [25] appears, read: group: developmental, developmental / developmental malformation / bone / supernumerary + developmental / developmental malformation / bone / extra ossification ….
[26] abbreviates: group: maternal, systemic / in life observation / body weight / body weight gain + systemic / in life observation / clinical signs / abnormal feces.
Where [27] appears, read: group: maternal, systemic / in life observation / body weight / body weight gain + systemic / in life observation / clinical signs / abnormal feces + ….
[28] abbreviates: systemic / pathology microscopic / bone marrow / hyperplasia + systemic / pathology microscopic / liver / hematopoietic cell proliferation.
Where [29] appears, read: systemic / pathology microscopic / bone marrow / hyperplasia + systemic / pathology microscopic / liver / hematopoietic cell proliferation….
Where [30] appears, read: systemic / in life observation / body weight / body weight gain.
The mark [31] stands for this setting: systemic / in life observation / clinical signs / erythema.
Setting [32] is: systemic / organ weight / liver / absolute.
The mark [33] stands for this setting: systemic / organ weight / liver / absolute + systemic / organ weight / liver / relative to body weight.
The mark [34] stands for this setting: systemic / pathology microscopic / testes / adenoma + systemic / in life observation / body weight / body weight + systemic / in life ….
[35] abbreviates: group: developmental, developmental / developmental malformation / bone / incomplete ossification.
Setting [36] is: group: maternal, reproductive / reproductive performance / postimplantation loss / postimplantation loss + reproductive / reproductive performance / ….
The mark [37] stands for this setting: group: developmental, developmental / developmental malformation / bone / bent + developmental / developmental malformation / bone / full supernumerary + ….
Setting [38] is: group: maternal, reproductive / reproductive performance / resorptions / resorptions + systemic / in life observation / clinical signs / abnormal movements….
[39] abbreviates: systemic / clinical chemistry / alanine aminotransferase (alt/sgpt) / alanine aminotransferase (alt/sgpt) + systemic / clinical chemistry / ….
The mark [40] stands for this setting: systemic / clinical chemistry / creatinine / creatinine + systemic / clinical chemistry / urea nitrogen / urea nitrogen.
Setting [41] is: systemic / clinical chemistry / creatinine / creatinine + systemic / clinical chemistry / urea nitrogen / urea nitrogen + systemic / ….

One may read the LOAEL as the lowest tested level that showed an adverse finding. The NOAEL is the highest dose or exposure tested at which no adverse effect was seen.

On to `C/C(=N\NC(=O)Nc1cc(F)cc(F)c1)c1ncccc1C(=O)O` [Diflufenzopyr], for which the LEL in [1] (setting [19]) is 1000 mg/kg/day; in data set [1] (setting [20]) it was 1000 mg/kg/day; in data set [2], 69 mg/kg/day; in [3] (setting [21]), 26 mg/kg/day; in data set [4], 725 mg/kg/day; in [5] (setting [22]), 552 mg/kg/day. For the same compound, the LEL is 552 mg/kg/day in data set [5] (setting [24]); 300 mg/kg/day in data set [6] (setting [25]); 100 mg/kg/day in [6] (setting [26]); 403 mg/kg/day in [7] (setting [28]); 1000 mg/kg/day in [8]. Moreover, the LOAEL is 1000 mg/kg/day in data set [1] (setting [19]); 1000 mg/kg/day in [1] (setting [20]); greater than 518 mg/kg/day in [2]; 299 mg/kg/day in [3] (systemic / hematology / reticulocyte / reticulocyte + systemic / pathology microscopic / bone marrow / hyperplasia); 725 mg/kg/day in [4]; 552 mg/kg/day in data set [5] (setting [22]). In addition, the LOAEL in data set [5] (setting [24]) was 552 mg/kg/day; in data set [6] (group: developmental, developmental / developmental malformation / bone / supernumerary), 300 mg/kg/day; in data set [6] (setting [26]), 100 mg/kg/day; in [7] (setting [28]), 403 mg/kg/day; in [8] it was greater than 1000 mg/kg/day. In addition, the NEL in data set [1] (setting [19]) is 300 mg/kg/day; in data set [1] (setting [20]) it was 300 mg/kg/day; in data set [2] it was 22 mg/kg/day; in data set [3] (setting [21]), less than 26 mg/kg/day; in data set [4], 352 mg/kg/day; in data set [5] (setting [23]), 126 mg/kg/day. Further, the NEL in data set [5] (setting [24]) stood at 126 mg/kg/day; in data set [6] (setting [25]), 100 mg/kg/day; in [6] (setting [27]) it was 30 mg/kg/day; in [7] (setting [29]) it was 58 mg/kg/day; in data set [8], 500 mg/kg/day. Besides, the NOAEL in [1] (setting [19]) is 300 mg/kg/day; in data set [1] (setting [20]) it was 300 mg/kg/day; in data set [2], no less than 518 mg/kg/day; in [3] (systemic / hematology / reticulocyte / reticulocyte + systemic / pathology microscopic / bone marrow / hyperplasia + systemic / hematology…), 26 mg/kg/day; in [4], 352 mg/kg/day; in data set [5] (setting [23]) it was 126 mg/kg/day. The NOAEL in data set [5] (setting [24]) is 126 mg/kg/day; in data set [6] (setting [25]), 100 mg/kg/day; in data set [6] (setting [27]), 30 mg/kg/day; in data set [7] (setting [29]), 58 mg/kg/day; in [8], no less than 1000 mg/kg/day.
Take `CCCCCCCCCCCCN=C(N)N` [Dodecylguanidine]: in [9], the LEL turned out to be 100 mg/kg/day, the LOAEL turned out to be 100 mg/kg/day, the NEL amounted to 25 mg/kg/day and the no-observed-adverse-effect level (NOAEL) was 25 mg/kg/day. In [10] (setting [30]), this compound had an LOAEL of 50 mg/kg/day. The NOAEL in data set [10] (systemic / in life observation / body weight / body weight gain + systemic / in life observation / clinical signs / desquamation + systemic…) is 25 mg/kg/day. Also, in [10] (setting [31]), the LEL was 12.5 mg/kg/day and the NEL was less than 12.5 mg/kg/day.
Consider `CCOC1Oc2ccc(OS(C)(=O)=O)cc2C1(C)C` (configuration not stated) [Ethofumesate], for which the LEL was 204 mg/kg/day in [11] (setting [32]); 97 mg/kg/day in data set [12] (setting [34]); 300 mg/kg/day in data set [13] (setting [35]); 300 mg/kg/day in data set [13] (setting [36]); 1900 mg/kg/day in data set [14]; 619 mg/kg/day in data set [15]. Also, the NEL in data set [11] (setting [32]) is less than 204 mg/kg/day; in data set [12] (setting [34]), less than 97 mg/kg/day; in data set [13] (setting [35]), 30 mg/kg/day; in data set [13] (setting [36]) it was 30 mg/kg/day; in data set [14] it was 190 mg/kg/day; in data set [15] it was 109 mg/kg/day. Further, the lowest-observed-adverse-effect level (LOAEL) in [11] (setting [33]) is greater than 2140 mg/kg/day; in [12] (setting [30]), 469 mg/kg/day; in data set [13] (setting [35]), 300 mg/kg/day; in [13] (setting [36]) it was 300 mg/kg/day; in data set [14] it was 1900 mg/kg/day; in data set [15], 619 mg/kg/day. Further, the NOAEL in data set [11] (setting [33]) was no less than 2140 mg/kg/day; in [12] (systemic / in life observation / body weight / body weight gain + systemic / clinical chemistry / alkaline phosphatase (alp/alk) / alkaline …), 127 mg/kg/day; in data set [13] (setting [35]), 30 mg/kg/day; in data set [13] (setting [36]), 30 mg/kg/day; in [14], 190 mg/kg/day; in data set [15], 109 mg/kg/day.
Take `CNC.Cc1cc(Cl)ccc1OCC(=O)O` [MCPA-dimethylammonium]: the LEL in data set [16] (setting [37]) worked out at 185 mg/kg/day; in data set [16] (setting [38]) it was 185 mg/kg/day; in data set [17] (setting [33]), 4 mg/kg/day; in data set [18] (setting [40]), 2.4 mg/kg/day. Further, the LOAEL in [16] (setting [37]) was 185 mg/kg/day; in data set [16] (setting [38]) it was 185 mg/kg/day; in [17] (setting [39]), 208 mg/kg/day; in data set [18] (setting [40]) it was 2.4 mg/kg/day. The NEL in data set [16] (setting [37]) was 62 mg/kg/day; in data set [16] (setting [38]) it was 62 mg/kg/day; in data set [17] (setting [33]) it was less than 4 mg/kg/day; in data set [18] (setting [41]) it was 0.6 mg/kg/day. Also, the NOAEL in data set [16] (setting [37]) was 62 mg/kg/day; in [16] (setting [38]), 62 mg/kg/day; in data set [17] (setting [39]), 42 mg/kg/day; in data set [18] (setting [41]), 0.6 mg/kg/day.

Source of the values: EPA's ToxRefDB 2.
